Experimental data as given in patent publication US10309967B2, “Methods of diagnosing bipolar disorders and screening for therapeutic compounds” (National University Corporation Chiba University, priority 2015, dated 2019).
Entries after “also recorded” stand apart in the source; their conditions may differ.

Test system: CSF samples from rats
Test: Metabolomics (CE-TOFMS) of CSF samples from rats chronically treated with Li or VPA
Type: in vivo, rat
Details: chronic (4-weeks) treatment via drinking water
Description: Data from human samples are presented as mean±standard deviation (SD). Statistical analysis was performed using SAS software version 9.3 (SAS Institute, Cary, N.C.). Analyses of metabolites between control and BD groups were performed using unpaired t-tests and Wilcoxon rank sum tests. A logistic regression model with a stepwise selection method was used for the multivariate analysis and multiple regression analysis (consistent with description in Allen et al., Technometrics. 1974; 16(1):125-127; and Miller et al., Chapman and Hall. 1974, which are incorporated in their entireties by reference herein). […] The Mann-Whitney U test (two-tailed) was used to evaluate changes in expression levels of the ACO and IDH genes between control and BD groups. Rat data are presented as mean±SD. To determine the effects of drug treatment, a one-way ANOVA, followed by the post hoc Dunnett's test was used. P values of less than 0.05 for two-tailed tests were considered statistically significant.
The volume (50 μL) of CSF sample was added to 450 μL it methanol containing internal standards, and mixed. Then, 450 μL chloroform and 200 μL Milli-Q water was added to the mixture. After mixture, the mixture was centrifuged at 2,300×g and 4° C. for 5 min. Subsequently, 800 μL of upper aqueous layer was centrifugally filtered through a Millipore 5-kDa cutoff filter at 9,100×g and 4° C. for 120 min to remove proteins. The filtrate was centrifugally concentrated and re-suspended in 25 μL of Milli-Q water for analysis.
Cationic compounds were measured in the positive mode of CE-TOFMS (Agilent CE-TOFMS system Machine No. 3, Fused silica capillary, i.d. 50 μM×80 cm), and anionic compounds were measured in the positive and negative modes of CE-MS/MS (Agilent CE system and Agilent 6400 TripleQuad LC/MS Machine No. QqQ01, Fused silica capillary, i.d. 50 μM×80 cm), as reported previously (Soga et al., Anal. Chem. 2000; 72(6):1236-1241; Soga et al., Anal Chem. 2002; 74(10):2233-2239; Soga et al., J. Proteome Res. 2003; 2(5):488-494, which are incorporated in their entireties by reference herein). Peaks detected by CE-TOFMS and CE-MS/MS were extracted using automatic integration software (MasterHands, Keio University, Tsuruoka, Japan) (Sugimoto et al., Metabolomics. 2009; 6(1):78-95, which is incorporated in its entirety by reference herein) and MassHunter Quantitative Analysis B.04.00, Agilent Technologies, Santa Clara, Calif., USA) in order to obtain peak information including m/z, migration time (MT), and peak area. The peaks were annotated with putative metabolites from the HMT metabolite database based on their MTs in CE and m/z values determined by TOFMS. The tolerance range for the peak annotation was configured at ±0.5 min for MT and ±10 ppm for m/z. In addition, concentrations of metabolites were calculated by normalizing the peak area of each metabolite with respect to the area of the internal standard and by using standard curves, which were obtained by three-point calibrations.
The CSF concentrations of 116 major metabolites from several pathways were measured. […] Male Sprague-Dawley rats (Japan SLC Inc., Shizuoka, Japan) aged 6 weeks old were used in this study. All rats were housed in groups of three per cage in a room maintained at 23° C.±2° C. and 60±10% humidity with a 12/12 hour light/dark cycle (lights on at 7:00 a.m.). The rats were given free access to food and water. Animal care and use were conducted in accordance with the Institutional Guidelines for Animal Care and Use of Otsuka Pharmaceutical Co., Ltd. (Tokushima, Japan). […] The drinking water was replaced twice a week. […] All animals were decapitated on day 30 after CSF sampling, and brain regions (prefrontal cortex, and hippocampus) were dissected rapidly on ice. Metabolomic analyses of rat CSF samples were performed as described herein.

O=C([O-])[O-].[Li+].[Li+] [Li, lithium carbonate]
2-Oxoisovaleric acid Mean (rat CSF): 4.3 µM | 3-Phosphoglyceric acid Mean (rat CSF): 0.3 µM | ADP-ribose Mean (rat CSF): 0.010 µM | Adenosine Mean (rat CSF): 0.2 µM | Alanin (Ala) Mean (rat CSF): 54 µM | Arginine (Arg) Mean (rat CSF): 31 µM | Argininosuccinic acid Mean (rat CSF): 1.0 µM | Asparagic acid (Asp) Mean (rat CSF): 1.8 µM | Asparagine (Asn) Mean (rat CSF): 4.8 µM | Carnosine Mean (rat CSF): 0.5 µM | Choline Mean (rat CSF): 7.5 µM | Citric acid Mean (rat CSF): 57 µM | Citrulline Mean (rat CSF): 3.8 µM | Creatine Mean (rat CSF): 60 µM | Creatinine Mean (rat CSF): 6.0 µM | Dihydroxyacetone phosphate Mean (rat CSF): 0.6 µM | Fructose 6-phosphate Mean (rat CSF): 0.2 µM | Glucose 6-phosphate Mean (rat CSF): 0.5 µM | Glutamic acid (Glu) Mean (rat CSF): 2.0 µM | Glutamine (Gln) Mean (rat CSF): 534 µM | Glutathione (GSSG) Mean (rat CSF): 1.1 µM | Glyceraldehyde 3-phosphate Mean (rat CSF): 0.9 µM | Glycerol 3-phosphate Mean (rat CSF): 7.2 µM | Glycine (Gly) Mean (rat CSF): 5.5 µM | Histidine (His) Mean (rat CSF): 7.1 µM | Homoserine Mean (rat CSF): 0.10 µM | Hydroxyproline Mean (rat CSF): 1.1 µM | Hypoxanthine Mean (rat CSF): 1.2 µM | Inosine monophosphate (IMP) Mean (rat CSF): 0.10 µM | Isocitric acid Mean (rat CSF): 2.0 µM | Isoleucine (Ile) Mean (rat CSF): 1.5 µM | Lactic acid Mean (rat CSF): 2,438 μM | Leucine (Leu) Mean (rat CSF): 5.1 µM | Lysine (Lys) Mean (rat CSF): 71 µM | Malic acid Mean (rat CSF): 2.2 µM | Methionine (Met) Mean (rat CSF): 4.4 µM | Mevalonic acid Mean (rat CSF): 0.003 µM | N-Carbamoylaspartic acid Mean (rat CSF): 0.04 µM | Nicotinamide Adenine dinucleotide (NAD^+) Mean (rat CSF): 0.8 µM | Nicotinamide Adenine dinucleotide phophate (NADP^+) Mean (rat CSF): 0.09 µM | Ornithine Mean (rat CSF): 2.3 µM | Phenylalanine (Phe) Mean (rat CSF): 3.1 µM | Phosphocreatine Mean (rat CSF): 6.9 µM | Phosphoenolpyruvic acid Mean (rat CSF): 0.2 µM | Pyruvic acid Mean (rat CSF): 29 µM | Ribose 5-phosphate Mean (rat CSF): 0.07 µM | Ribulose 5-phosphate Mean (rat CSF): 0.10 µM | S-Adenosylmethionine Mean (rat CSF): 0.5 µM | Serine (Ser) Mean (rat CSF): 82 µM | Succinic acid Mean (rat CSF): 9.0 µM | Threonine (Thr) Mean (rat CSF): 54 µM | Tryptophan (Trp) Mean (rat CSF): 1.2 µM | Tyrosine (Tyr) Mean (rat CSF): 5.4 µM | UDP-glucose Mean (rat CSF): 0.3 µM | Urea Mean (rat CSF): 4,332 μM | Uric acid Mean (rat CSF): 1.8 µM | Valine (Val) Mean (rat CSF): 2.3 µM | Xanthine Mean (rat CSF): 1.6 µM | cyclic AMP (cAMP) Mean (rat CSF): 0.007 µM | cyclic GMP (cGMP) Mean (rat CSF): 0.003 µM | CSF levels of argininosuccinic acid (rats, vs control): significantly increased | CSF levels of isocitrate (rats, vs control): not altered; also recorded: did not alter | CSF levels of succinic acid (rats, vs control): significantly increased

CCCC(CCC)C(=O)[O-].[Na+] [VPA, valproic acid sodium salt]
2-Oxoisovaleric acid Mean (rat CSF): 4.3 µM | 3-Phosphoglyceric acid Mean (rat CSF): 0.3 µM | ADP-ribose Mean (rat CSF): 0.01 µM | Adenosine Mean (rat CSF): 0.2 µM | Alanin (Ala) Mean (rat CSF): 50 µM | Arginine (Arg) Mean (rat CSF): 27 µM | Argininosuccinic acid Mean (rat CSF): 0.7 µM | Asparagic acid (Asp) Mean (rat CSF): 1.6 µM | Asparagine (Asn) Mean (rat CSF): 4.0 µM | Carnosine Mean (rat CSF): 0.5 µM | Choline Mean (rat CSF): 7.8 µM | Citric acid Mean (rat CSF): 44 µM | Citrulline Mean (rat CSF): 3.6 µM | Creatine Mean (rat CSF): 56 µM | Creatinine Mean (rat CSF): 6.2 µM | Dihydroxyacetone phosphate Mean (rat CSF): 0.8 µM | Fructose 6-phosphate Mean (rat CSF): 0.2 µM | Glucose 6-phosphate Mean (rat CSF): 0.5 µM | Glutamic acid (Glu) Mean (rat CSF): 1.6 µM | Glutamine (Gln) Mean (rat CSF): 598 µM | Glutathione (GSSG) Mean (rat CSF): 0.9 µM | Glyceraldehyde 3-phosphate Mean (rat CSF): 1.1 µM | Glycerol 3-phosphate Mean (rat CSF): 7.0 µM | Glycine (Gly) Mean (rat CSF): 6.5 µM | Histidine (His) Mean (rat CSF): 7.1 µM | Homoserine Mean (rat CSF): 0.09 µM | Hydroxyproline Mean (rat CSF): 1.1 µM | Hypoxanthine Mean (rat CSF): 1.4 µM | Inosine monophosphate (IMP) Mean (rat CSF): 0.1 µM | Isocitric acid Mean (rat CSF): 1.6 µM | Isoleucine (Ile) Mean (rat CSF): 1.2 µM | Lactic acid Mean (rat CSF): 2,361 μM | Leucine (Leu) Mean (rat CSF): 4.5 µM | Lysine (Lys) Mean (rat CSF): 85 µM | Malic acid Mean (rat CSF): 0.7 µM | Methionine (Met) Mean (rat CSF): 3.3 µM | N-Carbamoylaspartic acid Mean (rat CSF): 0.02 µM | Nicotinamide Adenine dinucleotide (NAD^+) Mean (rat CSF): 0.8 µM | Nicotinamide Adenine dinucleotide phophate (NADP^+) Mean (rat CSF): 0.09 µM | Ornithine Mean (rat CSF): 2.2 µM | Phenylalanine (Phe) Mean (rat CSF): 2.9 µM | Phosphocreatine Mean (rat CSF): 6.8 µM | Phosphoenolpyruvic acid Mean (rat CSF): 0.15 µM | Pyruvic acid Mean (rat CSF): 21 µM | Ribose 5-phosphate Mean (rat CSF): 0.06 µM | Ribulose 5-phosphate Mean (rat CSF): 0.08 µM | S-Adenosylmethionine Mean (rat CSF): 0.5 µM | Serine (Ser) Mean (rat CSF): 83 µM | Succinic acid Mean (rat CSF): 7.4 µM | Threonine (Thr) Mean (rat CSF): 41 µM | Tryptophan (Trp) Mean (rat CSF): 1.0 µM | Tyrosine (Tyr) Mean (rat CSF): 5.2 µM | UDP-glucose Mean (rat CSF): 0.3 µM | Urea Mean (rat CSF): 3,714 μM | Uric acid Mean (rat CSF): 1.8 µM | Valine (Val) Mean (rat CSF): 2.1 µM | Xanthine Mean (rat CSF): 1.5 µM | cyclic AMP (cAMP) Mean (rat CSF): 0.006 µM | cyclic GMP (cGMP) Mean (rat CSF): 0.003 µM | CSF levels of arginine (rats, vs control): significantly altered | CSF levels of argininosuccinic acid (rats, vs control): significantly altered | CSF levels of glutamine (rats, vs control): significantly altered | CSF levels of threonine (rats, vs control): significantly altered | CSF levels of tryptophan (rats, vs control): significantly altered | CSF levels of isocitrate (rats, vs control, sodium salt): not altered; also recorded: did not alter
